Values quoted from earlier work in patent EP1923060A1, “Combinations of a sphingolipid and an HMG-CoA reductase inhibitor for treating hypercholesterolemia” (Nederlandse Organisatie voor …, priority 2006, dated 2008).

Legend:
[1] = tested on: galactosamine-injured primary rat hepatocytes; settings: Kim et al., Phytotherapy Res. (2000) 14:448-451
[2] = in humans
C57bI mice = settings: intraperitoneal injection; US 2004/0171557

## CCCCCCCCC/C=C\CC/C=C/[C@@H](O)[C@H](CO[C@@H]1O[C@H](CO)[C@@H](O)[C@H](O)[C@H]1O)NC(=O)CCCCCCCCCCCCCCC [LCC, 1-O-(β-D-glucopyranosyl)-(2S,3R,4E,8Z)-2-N-palmityloctadecasphinga-4,8-diene]
[1]
  release into the culture medium of GPT and SDH: reduce the release

## CCCCCCCCCCCCCC[C@@H](O)[C@@H](O)[C@@H](N)CO [phytosphingosine]
[2]
  plasma (VLDL and LDL) cholesterol and triglyceride levels: demonstrated decisively

## glucocerebroside
C57bI mice
  liver fat content: may be reduced
